Where “and” joins values, the source holds several entries; their conditions need not be identical. Equal values may be shown once. Entries after “also recorded” stand apart in the source; their conditions may differ. Read-outs that look alike come from different tables or passages of the source.
Assay: Plasma kinetics in rat following intravenous and oral administration;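 as to AUC0-∞: parameter is AUC from zero to infinity in ng·h/mL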
Format: in vivo, Sprague Dawley rats
Conditions: male rats
Description: This study determined the intravenous pharmacokinetics and oral bioavailability of compound 1 of the invention (see FIG. 1A, structure no. 1), compound 2 of the invention (see FIG. 1D, structure no. 19) and compound 3 of the invention (see FIG. 1I, structure no. 53) following administration to Sprague Dawley rats at a dose level of 10 mg/kg.
Six groups of 3 male rats received either a single intravenous or single oral administration of compound 1, 2 or 3 of the invention at a dose level of 10 mg/kg. Blood samples were obtained at various times after dosing. Plasma samples were analysed for unchanged test item using a suitable LC-MS/MS method. Pharmacokinetic parameters were estimated from individual plasma concentrations.
Eighteen male rats each received either a single intravenous or a single oral administration of either compound 1, 2 or 3 at a dose level of 10 mg/kg. The formulation was orally administered to each animal by gastric gavage and intravenously administered to each animal via a tail vein. The dose was administered at a dose volume of 5 mL/kg. The formulations were administered to each animal according to the details in the following table:
Blood samples (ca 0.3 mL) were removed from the femoral vein of each animal into tubes containing lithium heparin as anticoagulant.
Blood samples were collected from 3 rats at the following times after dose administration: • 3, 6, 15, 45 min and 1.5, 2.5, 4, 6, 8, 24 h post dose. Oral Administration
Blood samples were collected from 3 rats at the following times after dose administration: • 5, 15, 45 min and 1.5, 2.5, 4, 6, 8, 24 h post dose. Processing of Blood Samples
Pharmacokinetic parameters of compound 1, 2 and 3 were derived by non-compartmental analysis using WinNonLin Pro version 5.0.1 (Pharsight 2005). The following parameters were derived, where appropriate, from the individual plasma concentration versus time profiles:
• F % The absolute oral bioavailability calculated as [AUC0-t (oral)*Dose(iv)/AUC0-t (iv)*Dose (oral)]*100 based on mean values derived after oral and intravenous administration Consideration was given to the estimation of λz and corresponding t1/2 values. Three or more points are required within the terminal phase for λz and t1/2 to be estimated. The following additional variables were tabulated to aid identification of potentially unreliable estimates of t1/2 and AUC:
Pharmacokinetic parameters were reported as geometric mean except Tmax which was reported as the median. Geometric coefficient of variation was calculated as: […]
Actual sampling times were used for all calculations of pharmacokinetic parameters. Plasma concentrations that were below the limit of quantification were taken as zero for the pharmacokinetic analysis.

[1] = oral 10 mg/kg, individual animals, acetate, 10 mg/kg

With `N=C(N)NN=CC=Cc1cccn1-c1ccccc1Br` [Compound 3, [1-(2-bromophenyl)-1H-pyrrol-2-yl-allylideneamino]guanidinium acetate] the AUC(0-inf) (male, Sprague Dawley, rat, plasma, po, 10 mg/kg, oral 10 mg/kg, Geometric mean) was 0.837 µg·h/mL, the AUC(0-t) (male, Sprague Dawley, rat, plasma, po, 10 mg/kg, oral 10 mg/kg, Geometric mean, read-out: AUC0-t) was 0.509 µg·h/mL and the Cmax (male, Sprague Dawley, rat, plasma, po, 10 mg/kg, oral 10 mg/kg, Geometric mean, read-out: Cmax) was 0.108 µg/mL. It also gave an MRT (male, Sprague Dawley, rat, plasma, po, 10 mg/kg, oral 10 mg/kg, Geometric mean, read-out: MRT) of 6.83 h, a half-life (male, Sprague Dawley, rat, plasma, po, 10 mg/kg, oral 10 mg/kg, Geometric mean, read-out: t1/2 (converted)) of 3.3 h and a Tmax (male, Sprague Dawley, rat, plasma, po, 10 mg/kg, oral 10 mg/kg, Geometric mean, read-out: tmax) of 4.59 h. For the same molecule, the AUC(0-inf) (male, Sprague Dawley, rat, plasma, po, 10 mg/kg, oral 10 mg/kg, Median) was 0.838 µg·h/mL, the AUC(0-t) (male, Sprague Dawley, rat, plasma, po, 10 mg/kg, oral 10 mg/kg, Median, read-out: AUC0-t) was 0.565 µg·h/mL and the Cmax (male, Sprague Dawley, rat, plasma, po, 10 mg/kg, oral 10 mg/kg, Median, read-out: Cmax) was 0.112 µg/mL. For the same molecule, the MRT (male, Sprague Dawley, rat, plasma, po, 10 mg/kg, oral 10 mg/kg, Median, read-out: MRT) was 6.83 h, the half-life (male, Sprague Dawley, rat, plasma, po, 10 mg/kg, oral 10 mg/kg, Median, read-out: t1/2 (converted)) was 3.3 h and the Tmax (male, Sprague Dawley, rat, plasma, po, 10 mg/kg, oral 10 mg/kg, Median, read-out: tmax) was 4.02 h. For the same molecule, the AUC(0-inf) (male, Sprague Dawley, rat, plasma, po, 10 mg/kg, oral 10 mg/kg, individual animals) was 0.863 µg·h/mL, the AUC(0-t) (male, Sprague Dawley, rat, plasma, po, 10 mg/kg, oral 10 mg/kg, individual animals, read-out: AUC0-t) was 0.605 µg·h/mL and the Cmax (male, Sprague Dawley, rat, plasma, po, 10 mg/kg, oral 10 mg/kg, individual animals, read-out: Cmax) was 0.132 µg/mL. The MRT (male, Sprague Dawley, rat, plasma, po, 10 mg/kg, oral 10 mg/kg, individual animals, read-out: MRT) was 6.82 h, the half-life (male, Sprague Dawley, rat, plasma, po, 10 mg/kg, oral 10 mg/kg, individual animals, read-out: t1/2 (converted)) was 3.19 h and the Tmax (male, Sprague Dawley, rat, plasma, po, 10 mg/kg, oral 10 mg/kg, individual animals, read-out: tmax) was 4.02 h. For the same molecule, the Tmax (male, Sprague Dawley, rat, plasma, po, 10 mg/kg, oral 10 mg/kg, from mean plasma concentrations, read-out: time post dose at which maximum plasma concentration was observed (tmax)) was 4 h, the half-life (male, Sprague Dawley, rat, plasma, po, 10 mg/kg, oral 10 mg/kg, read-out: apparent terminal half-life (converted)) was 3.3 h and the concentration at 0.08 h (male, Sprague Dawley, rat, plasma, po, 10 mg/kg, single oral 10 mg/kg, 0.08 h, individual animals, LLOQ 2.50 (Table X: * 5.0, ** 25, diluted samples), read-out: Sample Concentration in plasma) was 0.00253 µg/mL. It also gave a concentration at 0.08 h (male, Sprague Dawley, rat, plasma, po, 10 mg/kg, single oral 10 mg/kg, 0.08 h, mean, read-out: Mean Concentration in plasma) of 0.00253 µg/mL, a concentration at 0.25 h (male, Sprague Dawley, rat, plasma, po, 10 mg/kg, single oral 10 mg/kg, 0.25 h, mean of 3, read-out: Mean Concentration in plasma) of 0.0205 µg/mL and a concentration at 0.75 h (male, Sprague Dawley, rat, plasma, po, 10 mg/kg, single oral 10 mg/kg, 0.75 h, individual animals, read-out: Sample Concentration in plasma) of 0.0291 µg/mL. For the same molecule, the concentration at 0.75 h (male, Sprague Dawley, rat, plasma, po, 10 mg/kg, single oral 10 mg/kg, 0.75 h, mean of 3, read-out: Mean Concentration in plasma) was 0.0308 µg/mL, the concentration at 1.5 h (male, Sprague Dawley, rat, plasma, po, 10 mg/kg, single oral 10 mg/kg, 1.5 h, mean of 3, read-out: Mean Concentration in plasma) was 0.0392 µg/mL and the concentration at 2.5 h (male, Sprague Dawley, rat, plasma, po, 10 mg/kg, single oral 10 mg/kg, 2.5 h, mean of 3, read-out: Mean Concentration in plasma) was 0.0627 µg/mL. For the same molecule, the concentration at 4 h (male, Sprague Dawley, rat, plasma, po, 10 mg/kg, single oral 10 mg/kg, 4 h, individual animals, read-out: Sample Concentration in plasma) was 0.112 µg/mL, the concentration at 4 h (male, Sprague Dawley, rat, plasma, po, 10 mg/kg, single oral 10 mg/kg, 4 h, mean of 3, read-out: Mean Concentration in plasma) was 0.0925 µg/mL and the concentration at 6 h (male, Sprague Dawley, rat, plasma, po, 10 mg/kg, single oral 10 mg/kg, 6 h, individual animals, read-out: Sample Concentration in plasma) was 0.0704 µg/mL. It also gave a concentration at 6 h (male, Sprague Dawley, rat, plasma, po, 10 mg/kg, single oral 10 mg/kg, 6 h, mean of 3, read-out: Mean Concentration in plasma) of 0.0801 µg/mL, a concentration at 8 h (male, Sprague Dawley, rat, plasma, po, 10 mg/kg, single oral 10 mg/kg, 8 h, individual animals, LLOQ 2.50, read-out: Sample Concentration in plasma) of 0.0501 µg/mL and a concentration at 8 h (male, Sprague Dawley, rat, plasma, po, 10 mg/kg, single oral 10 mg/kg, 8 h, mean, LLOQ 2.50, read-out: Mean Concentration in plasma) of 0.0608 µg/mL. For the same molecule, the “mean absorption time (MAT)” value (oral 10 mg/kg) was 3.52 h, the MAT (oral 10 mg/kg, Arithmetic Mean) was 3.59 h and the MAT (oral 10 mg/kg, Geometric mean) was 3.52 h. The MAT (oral 10 mg/kg, Median) was 3.59 h, the “AUC0-∞” value [1] was 0.812 µg·h/mL and the AUC(0-t) [1] was 0.565 µg·h/mL and 0.386 µg·h/mL. For the same molecule, the Cmax [1] was 0.0855 µg/mL, the MAT [1] was 2.86 h and 4.32 h and the MRT [1] was 6.84 h. For the same molecule, the Tmax [1] was 6.00 h, the t1/2 [1] was 3.42 h and the “maximum observed plasma concentration, mean value” (oral 10 mg/kg, at tmax) was 92.5 ng/mL. The “Sample Concentration in plasma” value (single intravenous 10 mg/kg, 0.05 h, individual animals, acetate, 10 mg/kg) was 2940 ng/mL and 4040 ng/mL, the “Sample Concentration in plasma” value (single intravenous 10 mg/kg, 0.1 h, individual animals, acetate, 10 mg/kg) was 1300 ng/mL and 1030 ng/mL and the “Sample Concentration in plasma” value (single intravenous 10 mg/kg, 0.25 h, individual animals, acetate, 10 mg/kg) was 904 ng/mL and 954 ng/mL. For the same molecule, the “Sample Concentration in plasma” value (single intravenous 10 mg/kg, 0.75 h, individual animals, acetate, 10 mg/kg) was 445 ng/mL and 545 ng/mL, the “Sample Concentration in plasma” value (single intravenous 10 mg/kg, 1.5 h, individual animals, acetate, 10 mg/kg) was 327 ng/mL and 403 ng/mL and the “Sample Concentration in plasma” value (single intravenous 10 mg/kg, 2.5 h, individual animals, acetate, 10 mg/kg) was 274 ng/mL and 240 ng/mL. For the same molecule, the “Sample Concentration in plasma” value (single intravenous 10 mg/kg, 4 h, individual animals, acetate, 10 mg/kg) was 225 ng/mL and 171 ng/mL, the “Sample Concentration in plasma” value (single intravenous 10 mg/kg, 6 h, individual animals, acetate, 10 mg/kg) was 129 ng/mL and 124 ng/mL and the “Sample Concentration in plasma” value (single intravenous 10 mg/kg, 8 h, individual animals, LLOQ 2.50, acetate, 10 mg/kg) was “<LLOQ and 100 ng/mL”. The “Sample Concentration in plasma” value (single intravenous 10 mg/kg, 24 h, individual animals, LLOQ 2.50, acetate, 10 mg/kg) was “<LLOQ and 2.55 ng/mL”, the adverse effects (single intravenous or oral administration, 10 mg/kg, acetate) was “No adverse effects; also recorded: No adverse affects” and the “Sample Concentration in plasma” value (single oral 10 mg/kg, 0.08 h, individual animals, LLOQ 2.50 (Table X: * 5.0, ** 25, diluted samples), acetate, 10 mg/kg) was “<LLOQ”. The “Sample Concentration in plasma” value (single oral 10 mg/kg, 0.25 h, individual animals, acetate, 10 mg/kg) was 14.7 ng/mL and 14.1 ng/mL and 32.8 ng/mL, the “Sample Concentration in plasma” value (single oral 10 mg/kg, 0.75 h, individual animals, acetate, 10 mg/kg) was 26.6 ng/mL and 36.6 ng/mL and the “Sample Concentration in plasma” value (single oral 10 mg/kg, 1.5 h, individual animals, acetate, 10 mg/kg) was 61.4 ng/mL and 19.2 ng/mL and 37.0 ng/mL. The “Sample Concentration in plasma” value (single oral 10 mg/kg, 2.5 h, individual animals, acetate, 10 mg/kg) was 82.5 ng/mL and 37.2 ng/mL and 68.4 ng/mL, the “Sample Concentration in plasma” value (single oral 10 mg/kg, 4 h, individual animals, acetate, 10 mg/kg) was “*33.4 ng/mL and 132 ng/mL” and the “Sample Concentration in plasma” value (single oral 10 mg/kg, 6 h, individual animals, acetate, 10 mg/kg) was 85.5 ng/mL and 84.5 ng/mL. The “Sample Concentration in plasma” value (single oral 10 mg/kg, 8 h, individual animals, LLOQ 2.50, acetate, 10 mg/kg) was 76.1 ng/mL and 56.2 ng/mL, the “Sample Concentration in plasma” value (single oral 10 mg/kg, 24 h, individual animals, LLOQ 2.50) was “<LLOQ” and the “Mean Concentration in plasma” value (single oral 10 mg/kg, 24 h, mean, LLOQ 2.50) was “<LLOQ”.

Source: patent publication US8058306B2, “Phenyl pyrrole aminoguanidine derivatives” (Action Pharma A/S, priority 2006, dated 2011)
